Assay [1] deals with T1, hMC4R (Homo sapiens, UniProt P32245). Put plainly: Lanthanide-based competitive binding assay.
Assay [2] addresses T1, hMC4R. As to conditions: binding to hMC4R, MSH(7) ligands; cited from earlier work.

Like-named read-outs stand apart in the source and are kept apart here. Bridge positions count the residues as written; N and C are the ends. Square brackets hold non-standard residues; d marks the D form. Peptide text beside a SMILES is read from it. d2Nal = N[C@H](Cc1ccc2ccccc2c1)C(=O)O; Nle = CCCC[C@H](N)C(=O)O

T1 sequence (P32245 whole entry): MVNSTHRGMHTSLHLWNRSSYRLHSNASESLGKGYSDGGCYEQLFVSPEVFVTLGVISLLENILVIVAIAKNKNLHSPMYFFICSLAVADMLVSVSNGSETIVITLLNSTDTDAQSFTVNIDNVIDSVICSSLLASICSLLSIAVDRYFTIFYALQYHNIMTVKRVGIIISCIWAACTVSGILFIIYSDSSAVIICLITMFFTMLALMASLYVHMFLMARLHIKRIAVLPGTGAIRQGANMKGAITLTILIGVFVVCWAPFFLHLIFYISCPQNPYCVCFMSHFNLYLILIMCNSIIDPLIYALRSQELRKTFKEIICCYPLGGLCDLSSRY

In general, EC50 refers to the concentration at which the effect is half-maximal. For `CCCC[C@H](NC(=O)[C@H](CO)NC(C)=O)C(=O)N[C@@H](CCC(=O)O)C(=O)N[C@@H](Cc1c[nH]cn1)C(=O)N[C@H](Cc1ccccc1)C(=O)N[C@@H](CCCNC(=N)N)C(=O)N[C@@H](Cc1c[nH]c2ccccc12)C(N)=O` [MSH(7), Ac-Ser-Nle-Glu-His-D-Phe-Arg-Trp-NH2] (Ac-S[Nle]EH[dF]RW-NH2), on hMC4R [1], the EC50 is approximately 50 nM.

Molecule `CCCC[C@H](NC(=O)CNC(=O)[C@@H]1CCCN1C(=O)CNC(=O)[C@@H]1CCCN1C(=O)CNC(=O)[C@@H]1CCCN1C(=O)CNC(=O)[C@@H]1CCCN1C(=O)CNC(=O)[C@@H]1CCCN1C(=O)CNC(=O)[C@@H]1CCCN1C(=O)CNC(=O)[C@@H]1CCCN1C(=O)CNC(=O)[C@@H]1CCCN1C(=O)CNC(=O)[C@@H]1CCCN1C(=O)CNC(=O)[C@@H]1CCCN1C(=O)CNC(=O)[C@@H]1CCCN1C(=O)CNC(=O)[C@@H]1CCCN1C(=O)[C@H](Cc1c[nH]c2ccccc12)NC(=O)[C@H](CCCNC(=N)N)NC(=O)[C@@H](Cc1ccccc1)NC(=O)[C@H](Cc1c[nH]cn1)NC(=O)[C@H](CCC(=O)O)NC(=O)[C@H](CCCC)NC(=O)[C@H](CO)NC(C)=O)C(=O)N[C@H]1CC(=O)NCCCC[C@@H](C(N)=O)NC(=O)[C@H](Cc2c[nH]c3ccccc23)NC(=O)[C@H](CCCNC(=N)N)NC(=O)[C@@H](Cc2ccc3ccccc3c2)NC(=O)[C@H](Cc2c[nH]cn2)NC1=O` [compound 15, Ac-MSH(7)-(Pro-Gly)12-SHU9119-NH2] (Ac-S[Nle]EH[dF]RWPGPGPGPGPGPGPGPGPGPGPGPG[Nle]DH[d2Nal]RWK-NH2; lactam 33-38) showed an EC50 on hMC4R [1] (SEM) of 1.58 nM.

For `CCCC[C@H](NC(=O)COCC(=O)NCCCOCCOCCOCCCNC(=O)CNC(=O)[C@@H]1CCCN1C(=O)CNC(=O)[C@@H]1CCCN1C(=O)CNC(=O)[C@@H]1CCCN1C(=O)COCC(=O)NCCCOCCOCCOCCCNC(=O)[C@H](Cc1c[nH]c2ccccc12)NC(=O)[C@H](CCCNC(=N)N)NC(=O)[C@@H](Cc1ccccc1)NC(=O)[C@H](Cc1c[nH]cn1)NC(=O)[C@H](CCC(=O)O)NC(=O)[C@H](CCCC)NC(=O)[C@H](CO)NC(C)=O)C(=O)N[C@H]1CC(=O)NCCCC[C@@H](C(N)=O)NC(=O)[C@H](Cc2c[nH]c3ccccc23)NC(=O)[C@H](CCCNC(=N)N)NC(=O)[C@@H](Cc2ccc3ccccc3c2)NC(=O)[C@H](Cc2c[nH]cn2)NC1=O` [compound 16, Ac-MSH(7)-PEGO-(Pro-Gly)3-PEGO-SHU9119-NH2], the response on hMC4R [1] (SEM) was half-maximal at 1.38 nM (EC50).

Regarding `CCCC[C@H](NC(=O)COCC(=O)NCCCOCCOCCOCCCNC(=O)[C@H](Cc1c[nH]c2ccccc12)NC(=O)[C@H](CCCNC(=N)N)NC(=O)[C@@H](Cc1ccccc1)NC(=O)[C@H](Cc1c[nH]cn1)NC(=O)[C@H](CCC(=O)O)NC(=O)[C@H](CCCC)NC(=O)[C@H](CO)NC(C)=O)C(=O)N[C@H]1CC(=O)NCCCC[C@@H](C(N)=O)NC(=O)[C@H](Cc2c[nH]c3ccccc23)NC(=O)[C@H](CCCNC(=N)N)NC(=O)[C@@H](Cc2ccc3ccccc3c2)NC(=O)[C@H](Cc2c[nH]cn2)NC1=O` [compound 17, Ac-MSH(7)-PEGO-SHU9119-NH2], at hMC4R [1] (SEM), the EC50 was 1.86 nM.

At hMC4R [1] (SEM), `CCCC[C@H](NC(=O)COCC(=O)NCCCOCCOCCOCCCNC(=O)COCC(=O)NCCCOCCOCCOCCCNC(=O)[C@H](Cc1c[nH]c2ccccc12)NC(=O)[C@H](CCCNC(=N)N)NC(=O)[C@@H](Cc1ccccc1)NC(=O)[C@H](Cc1c[nH]cn1)NC(=O)[C@H](CCC(=O)O)NC(=O)[C@H](CCCC)NC(=O)[C@H](CO)NC(C)=O)C(=O)N[C@H]1CC(=O)NCCCC[C@@H](C(N)=O)NC(=O)[C@H](Cc2c[nH]c3ccccc23)NC(=O)[C@H](CCCNC(=N)N)NC(=O)[C@@H](Cc2ccc3ccccc3c2)NC(=O)[C@H](Cc2c[nH]cn2)NC1=O` [compound 18, Ac-MSH(7)-PEGO-PEGO-SHU9119-NH2] gave an EC50 of 1.7 nM.

As to “Ac-(Pro-Gly)6- MSH(7)-NH2 (Ac-PGPGPGPGPGPGS[Nle]EH[dF]RW-NH2; SMILES CCCC[C@H](NC(=O)[C@H](CO)NC(=O)CNC(=O)[C@@H]1CCCN1C(=O)CNC(=O)[C@@H]1CCCN1C(=O)CNC(=O)[C@@H]1CCCN1C(=O)CNC(=O)[C@@H]1CCCN1C(=O)CNC(=O)[C@@H]1CCCN1C(=O)CNC(=O)[C@@H]1CCCN1C(C)=O)C(=O)N[C@@H](CCC(=O)O)C(=O)N[C@@H](Cc1c[nH]cn1)C(=O)N[C@H](Cc1ccccc1)C(=O)N[C@@H](CCCNC(=N)N)C(=O)N[C@@H](Cc1c[nH]c2ccccc12)C(N)=O) [compound 19]”, in the assay with hMC4R [2], the EC50 is 82 ± 12 nM.

For the molecule “Ac-(Pro-Gly)9- MSH(7)-NH2 (Ac-PGPGPGPGPGPGPGPGPGS[Nle]EH[dF]RW-NH2; SMILES CCCC[C@H](NC(=O)[C@H](CO)NC(=O)CNC(=O)[C@@H]1CCCN1C(=O)CNC(=O)[C@@H]1CCCN1C(=O)CNC(=O)[C@@H]1CCCN1C(=O)CNC(=O)[C@@H]1CCCN1C(=O)CNC(=O)[C@@H]1CCCN1C(=O)CNC(=O)[C@@H]1CCCN1C(=O)CNC(=O)[C@@H]1CCCN1C(=O)CNC(=O)[C@@H]1CCCN1C(=O)CNC(=O)[C@@H]1CCCN1C(C)=O)C(=O)N[C@@H](CCC(=O)O)C(=O)N[C@@H](Cc1c[nH]cn1)C(=O)N[C@H](Cc1ccccc1)C(=O)N[C@@H](CCCNC(=N)N)C(=O)N[C@@H](Cc1c[nH]c2ccccc12)C(N)=O) [compound 20]”, the EC50 with hMC4R [2] was 236 ± 24 nM.

“Ac-(Pro-Gly)12- MSH(7)-NH2 (Ac-PGPGPGPGPGPGPGPGPGPGPGPGS[Nle]EH[dF]RW-NH2; SMILES CCCC[C@H](NC(=O)[C@H](CO)NC(=O)CNC(=O)[C@@H]1CCCN1C(=O)CNC(=O)[C@@H]1CCCN1C(=O)CNC(=O)[C@@H]1CCCN1C(=O)CNC(=O)[C@@H]1CCCN1C(=O)CNC(=O)[C@@H]1CCCN1C(=O)CNC(=O)[C@@H]1CCCN1C(=O)CNC(=O)[C@@H]1CCCN1C(=O)CNC(=O)[C@@H]1CCCN1C(=O)CNC(=O)[C@@H]1CCCN1C(=O)CNC(=O)[C@@H]1CCCN1C(=O)CNC(=O)[C@@H]1CCCN1C(=O)CNC(=O)[C@@H]1CCCN1C(C)=O)C(=O)N[C@@H](CCC(=O)O)C(=O)N[C@@H](Cc1c[nH]cn1)C(=O)N[C@H](Cc1ccccc1)C(=O)N[C@@H](CCCNC(=N)N)C(=O)N[C@@H](Cc1c[nH]c2ccccc12)C(N)=O) [compound 21]”: in the assay with hMC4R [2], the EC50 was 188 ± 25 nM.

As to “Ac-MSH(7)-(Pro-Gly)6- MSH(7)-NH2 (Ac-S[Nle]EH[dF]RWPGPGPGPGPGPGS[Nle]EH[dF]RW-NH2; SMILES CCCC[C@H](NC(=O)[C@H](CO)NC(C)=O)C(=O)N[C@@H](CCC(=O)O)C(=O)N[C@@H](Cc1c[nH]cn1)C(=O)N[C@H](Cc1ccccc1)C(=O)N[C@@H](CCCNC(=N)N)C(=O)N[C@@H](Cc1c[nH]c2ccccc12)C(=O)N1CCC[C@H]1C(=O)NCC(=O)N1CCC[C@H]1C(=O)NCC(=O)N1CCC[C@H]1C(=O)NCC(=O)N1CCC[C@H]1C(=O)NCC(=O)N1CCC[C@H]1C(=O)NCC(=O)N1CCC[C@H]1C(=O)NCC(=O)N[C@@H](CO)C(=O)N[C@@H](CCCC)C(=O)N[C@@H](CCC(=O)O)C(=O)N[C@@H](Cc1c[nH]cn1)C(=O)N[C@H](Cc1ccccc1)C(=O)N[C@@H](CCCNC(=N)N)C(=O)N[C@@H](Cc1c[nH]c2ccccc12)C(N)=O) [compound 22]”, the EC50 with hMC4R [2] was 11 ± 2 nM.

The record behind these values is article PMC4254589 (Bioorganic & medicinal chemistry, 2014).
